Test results reported in patent publication US8058243B2, “Method for treating a brain cancer with ifenprodil” (HSC Research and Development Limited Partnership, priority 2006, dated 2011).
Where a name gives a salt, the structure may show the parent alone. Read-outs that look alike come from different tables or passages of the source.

System: murine neural precursor cells (neurosphere cultures)
Experiment: HTS of LOPAC library against secondary neurosphere cultures, MTT proliferation assay at 3 μM, day 7 (z score, P value)
Assay type: cell-based, mouse
[1] = LOPAC screen, neurosphere MTT proliferation, 3 μM, day 7
[2] = yes/no: significantly inhibited neurosphere proliferation (P<0.01) in primary screen
[3] = LOPAC library screen, 3 μM, MTT, secondary neurosphere cultures, day 7
[4] = LOPAC primary screen, neurosphere MTT proliferation, 3 μM, day 7
[5] = yes/no: significantly inhibited neurosphere proliferation (P<0.01) in the primary screen
[6] = LOPAC library screen, 3 μM, MTT, neurosphere cultures
[7] = yes = significantly inhibited neurosphere proliferation (P<0.01) in the primary screen
[8] = primary LOPAC screen, 3 μM, MTT, neurosphere proliferation
[9] = yes/no: significantly inhibited neurosphere proliferation in the primary screen
[10] = LOPAC library screen at 3 μM, secondary neurosphere cultures, MTT
[11] = yes/no: significantly inhibited neurosphere proliferation in primary screen

O=C(O)c1cc(O)c2ccc(Cl)cc2n1 [7-Chlorokynurenic acid]
Z Score: 1.241 | Z score [1]: 1.241 | Activity [2]: no

N[C@@H](C(=O)N[C@@H]1C(=O)N2C(C(=O)O)=C(Cl)CS[C@H]12)c1ccccc1 [Cefaclor]
Z Score [3]: −3.009 | Z score [4]: −3.009 | Activity [5]: yes

CC(C)N(CCC(C(N)=O)(c1ccccc1)c1ccccn1)C(C)C (stereo not drawn) [Disopyramide phosphate]
Z Score [6]: −0.07187 | Z score [4]: −0.072 | Activity [5]: no

Cl.N[C@@H](CCl)C(=O)O [beta-Chloro-L-alanine hydrochloride]
Z Score: −1.39 | Z score [1]: −1.390 | Activity [2]: no

C[N+](C)(C)CCCCCC[N+](C)(C)C [Hexamethonium bromide]
Z Score: −0.8199 | Z score [4]: −0.820 | Activity [5]: no

CC(C)c1ccc2c(c1)c(SC(C)(C)C)c(CC(C)(C)C(=O)O)n2Cc1ccc(Cl)cc1 [MK-886]
Z Score: −1.549 | Z score [4]: −1.549 | Activity [7]: no

CCCC(C)(COC(N)=O)COC(=O)NC(C)C (stereo not drawn) [Carisoprodol]
Z Score: −1.795 | Z score [1]: −1.795 | Activity [2]: no

Cc1cccc(C#Cc2ccccc2)n1.Cl [6-Methyl-2-(phenylethynyl)pyridine hydrochloride]
Z Score (168 h, 3 µM): 0.09366 | Z score (168 h, 3 µM): 0.094 | Activity [7]: no

CCCc1c(-c2ccc(O)cc2)nn(-c2ccc(O)cc2)c1-c1ccc(O)cc1 [1,3,5-tris(4-hydroxyphenyl)-4-propyl-1H-pyrazole]
Z Score (168 h, 3 µM): 0.7717 | Z score (168 h, 3 µM): 0.772 | Activity [2]: no

OC(CCN1CCCCC1)(c1ccccc1)C1CCCCC1 (stereo not drawn) [Trihexyphenidyl hydrochloride]
Z Score [6]: 1.215

COC(=O)c1c(-c2cc(OC)c(OC)c(OC)c2)c2ccc(OCc3ccccn3)cc2c(=O)n1-c1ccc(N)cc1 [T-1032]
Z Score: −2.02 | Z score [8]: −2.020 | Activity [9]: no

O=C(O)CCCCC1CCSS1 (stereo not drawn) [(B1)-alpha-Lipoic Acid]
Z Score: 0.3418

Cl.Oc1cc2c(cc1O)C(c1ccccc1)CNCC2 (stereo not drawn) [(B1)-SKF-38393 hydrochloride]
Z Score: 1.28

NCCCCCC(=O)O [6-Aminohexanoic acid]
Activity: no | Z Score: −2.179 | Z score: −2.179

Oc1ncnc2[nH]ncc12 [Allopurinol]
Z Score [6]: 0.1473 | Z score [8]: 0.147 | Activity [9]: no

Cl.Cl.N=C(N)c1ccc(N)cc1 [4-Aminobenzamidine dihydrochloride]
Z Score: −1.287 | Z score [4]: −1.287 | Activity [7]: no

N[C@@H]1CONC1=O (racemic) [DL-Cycloserine]
Z Score [10]: −0.2986 | Z score [1]: −0.299 | Activity [2]: no

C=CCN1CC[C@]23CCCC[C@H]2[C@H]1Cc1ccc(O)cc13 [Levallorphan tartrate]
Z Score [10]: −0.3465 | Z score [4]: −0.346 | Activity [7]: no

C=C(C)[C@H]1CN[C@H](C(=O)O)[C@H]1CC(=O)O [Kainic acid]
Z Score: −0.3169 | Z score [4]: −0.317 | Activity [2]: no

NC(CCP(=O)(O)O)C(=O)O (racemic) [(±)-2-Amino-4-phosphonobutyric acid]
Z score [8]: 1.893 | Activity [9]: no

Metaproterenol hemisulfate
Z Score [10]: −1.022 | Z score [4]: −1.022 | Activity [7]: no

Oxotremorine sesquifumarate salt
Z Score: 0.8552 | Z score [4]: 0.855 | Activity [11]: no

CC(=O)NNC(=O)N1Cc2ccccc2Oc2ccc(Cl)cc21 [SC 19220]
Z Score: −1.64 | Z score [4]: −1.640 | Activity [11]: no

O=C(O)c1cc([N+](=O)[O-])ccc1NCCCc1ccccc1 [5-Nitro-2-(3-phenylpropylamino)benzoic acid]
Z Score (168 h, 3 µM): −0.7343 | Z score (168 h, 3 µM): −0.734 | Activity [7]: no

Cl.Cn1ccc2cc(NC(=O)Nc3cccnc3)ccc21 [SB 200646 hydrochloride]
Z Score: 2.437 | Z score [8]: 2.437 | Activity [9]: no

COC(=O)N1CCN(C(=O)Cc2ccc(Cl)c(Cl)c2)C(CN2CCCC2)C1.O=C(O)/C=C/C(=O)O (racemic) [GR-89696 fumarate]
Z Score: −0.7788 | Z score [4]: −0.779 | Activity [5]: no

CC(C)[C@H](CO)Nc1nc(Nc2cccc(Cl)c2)c2ncn(C(C)C)c2n1 [Purvalanol A]
Z Score [3]: −11.23 | Z score [4]: −11.234 | Activity [5]: yes

C=CCc1ccccc1OCC(O)CNC(C)C (stereo not drawn) [Alprenolol hydrochloride]
Z Score [3]: −2.143 | Z score [8]: −2.143 | Activity [9]: no

COc1ccc(CNC(=O)/C=C/c2ccc3[nH]cc(CCN(C)C)c3c2)cc1 [GR 4661]
Z Score: 0.1015 | Z score [4]: 0.102 | Activity [7]: no

Cc1[nH]c2ccc(O)cc2c1CCN.O=C(O)/C=C\C(=O)O [2-Methyl-5-hydroxytryptamine maleate]
Z Score: 0.5718 | Z score [4]: 0.572 | Activity [7]: no

O=C(O)CNC(=O)C(CS)Cc1ccccc1 (racemic) [DL-Thiorphan]
Z Score [10]: −0.3116 | Z score [4]: −0.312 | Activity [11]: no

O=C1NCN(c2ccccc2)C12CCN(CCCC(c1ccc(F)cc1)c1ccc(F)cc1)CC2 [Fluspirilene]
Activity: no | Z Score (LOPAC library screen at 3 μM, MTT, secondary neurosphere cultures, screened in singlets): 1.589 | Z score [4]: 1.589

CCCn1c(=O)c2[nH]c(-c3ccc(OCC(=O)NCCN)cc3)nc2n(CCC)c1=O [Xanthine amine congener]
Z Score [6]: 0.001164 | Z score [8]: 0.001 | Activity [9]: no

Cc1nc2c(OCc3ccccc3)cccn2c1CC#N [SCH-28080]
Z Score: 2.107 | Z score [1]: 2.107 | Activity [2]: no

O=C(O)C=Cc1c[nH]cn1 [4-Imidazoleacrylic acid]
Z Score: −0.2635 | Z score [8]: −0.264 | Activity [9]: no

O-(Carboxymethyl)hydroxylamine hemihydrochloride
Z Score: −2.058 | Z score [8]: −2.058 | Activity [9]: no

CC1=C(CC(=O)O)c2cc(F)ccc2/C1=C\c1ccc([S+](C)[O-])cc1 (stereo not drawn) [Sulindac]
Activity: no | Z Score [10]: −0.1942 | Z score [4]: −0.194

C[C@H](Cc1ccc(OCC(=O)[O-])cc1)NC[C@H](O)c1cccc(Cl)c1.[Na+] [BRL 37344 sodium]
Z Score: −1.725 | Z score [1]: −1.725 | Activity [2]: no

(−)-Scopolamine methyl nitrate
Activity [11]: no

NS(=O)(=O)c1cc2c(cc1Cl)NC(C1CC3C=CC1C3)NS2(=O)=O (stereo not drawn) [Cyclothiazide]
Z Score [10]: −0.907 | Z score [1]: −0.907 | Activity [2]: no

C[C@@H](NC(=O)/C(C#N)=C/c1ccc(O)c(O)c1)c1ccccc1 [Tyrphostin AG 527]
Z Score [3]: −1.607 | Z score [8]: −1.607 | Activity [9]: no

C[C@H]1C[C@H]2[C@@H]3CCC4=CC(=O)C=C[C@]4(C)[C@@]3(F)[C@@H](O)C[C@]2(C)[C@@]1(O)C(=O)CO [Betamethasone]
Z Score [6]: 0.8811 | Z score [1]: 0.881

C[C@@H]1OC[C@H](C[N+](C)(C)C)O1.[I-] [(+)-cis-Dioxolane iodide]
Z Score: −3.402 | Z score [4]: −3.402 | Activity [5]: yes

O=c1c2ccccc2[se]n1-c1ccccc1 [Ebselen]
Z Score [10]: −0.2515 | Z score [4]: −0.251

COc1ccccc1CNCCCCCCNCCCCCCCCNCCCCCCNCc1ccccc1OC [Methoctramine (31), Methoctramine, reference compound]
Z Score (168 h, 3 µM): −7.012 | Z score (168 h, 3 µM): −7.012 | Activity [5]: yes

NC(=O)C(=O)[O-].[Na+] [Sodium Oxamate]
Z Score (168 h, 3 µM): 0.7449 | Z score (168 h, 3 µM): 0.745 | Activity [11]: no

CCCCCCCCCCCCCCCC(=O)OC(CC(=O)O)C[N+](C)(C)C.[Cl-] (racemic) [Palmitoyl-DL-Camitine chloride]
Z score [4]: 0.200 | Activity [11]: no

Nc1ncn([C@@H]2O[C@H](CO)[C@@H](O)[C@H]2O)c(=O)n1 [5-azacytidine]
Z Score [3]: −1.398 | Z score [8]: −1.398 | Activity [9]: no

Cl.NCCc1ccc(S(=O)(=O)F)cc1 [4-(2-Aminoethyl)benzenesulfonyl fluoride hydrochloride]
Z Score: 0.3634 | Z score [8]: 0.363 | Activity [9]: no

Cc1ccccc1C(OCCN(C)C)c1ccccc1 (stereo not drawn) [Orphenadrine hydrochloride]
Z Score [6]: 0.4548 | Z score [4]: 0.455

NCCC(=O)NCCc1c[nH]cn1 [Carcinine dihydrochloride]
Z Score (168 h, 3 µM): −1.023 | Z score (168 h, 3 µM): −1.023 | Activity [9]: no

Histamine, R(−)-alpha-methyl-, dihydrochloride
Z Score [3]: −1.469 | Z score [4]: −1.469 | Activity [2]: no

N#C/C(=C\c1ccc(O)c(O)c1)C(=O)NCCCc1ccccc1 [Tyrphostin AG 555]
Z Score [10]: −0.6812 | Z score [8]: −0.681 | Activity [9]: no

Br.CCCN(CCC)C1CCc2cccc(O)c2C1 (stereo not drawn) [(B1)-8-Hydroxy-DPAT hydrobromide]
Z Score: 0.6561

CCCC(CCC)C(=O)O.[Na] [Valproic acid sodium]
Z Score [10]: −0.09493 | Z score [4]: −0.095 | Activity [7]: no
